Some test systems named below: SK-MEL-28 melanoma; OVCAR-3 ovarian; BT-549 breast; DU-145 prostate; HOP-62 NSCLC; EKVX NSCLC; UACC-62 melanoma; SW-620 colon; RPMI-8226 leukemia; MDA-MB-435.
What all share (experiment): NCI tumour cell line growth inhibition, 48 h

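In this assay, cells in 96-well plates receive the compound at five concentrations for 48 hours. Endpoints are linearly interpolated between the surrounding concentrations. Here, GI50 denotes the concentration required for 50% inhibition of growth. The concentration for full growth arrest is given as TGI.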

Consider `O=C1C(Nc2ccc(Br)cc2)=C(I)C(=O)c2ncccc21`, for which the GI50 in the test on SK-MEL-28 melanoma is 1.82 µM; in the test on OVCAR-3 ovarian, 0.154 µM; in the test on BT-549 breast, 1.85 µM; in the test with DU-145 prostate, 1.14 µM; in the test with HOP-62 NSCLC it was 2.31 µM; in the test with EKVX NSCLC, 3.08 µM. The GI50 was 1.16 µM in the test with UACC-62 melanoma, 0.531 µM in the test with SW-620 colon, 0.836 µM in the test with RPMI-8226 leukemia and 0.911 µM with MDA-MB-435. In addition, the TGI is 6.1 µM with SK-MEL-28 melanoma; 0.524 µM in the test with OVCAR-3 ovarian; 5.9 µM in the test on BT-549 breast; 4.26 µM with DU-145 prostate; 8.31 µM in the test with HOP-62 NSCLC; 9.52 µM in the test with EKVX NSCLC. Moreover, the TGI worked out at 2.96 µM with UACC-62 melanoma, 1.51 µM in the test with SW-620 colon, 2.12 µM in the test on RPMI-8226 leukemia and 1.72 µM in the test with MDA-MB-435.

On to `CCC(CCC(C)C1CCC2C3CC=C4CC(OC5OC(CO)C(O)C(O)C5O)CCC4(C)C3CCC12C)C(C)C` (stereo not given), for which the TGI in the test on SK-MEL-28 melanoma, with OVCAR-3 ovarian, with BT-549 breast, with DU-145 prostate, in the test on HOP-62 NSCLC and in the test with EKVX NSCLC was above 100 µM in each case. The TGI in the test on UACC-62 melanoma, with SW-620 colon, in the test on RPMI-8226 leukemia and in the test with MDA-MB-435 was above 100 µM throughout.

As for `C[C@]12CC[C@H]3[C@@H](CCC4=CC(=O)CC[C@@]43C)[C@@H]1CC[C@@H]2C(=O)COS(=O)(=O)c1ccc(Br)cc1`, the TGI in the test with SK-MEL-28 melanoma worked out at 43.5 µM; in the test on OVCAR-3 ovarian, 28 µM; with BT-549 breast, 50.5 µM; in the test with DU-145 prostate, 34.4 µM; in the test with HOP-62 NSCLC it was 46.6 µM; in the test with EKVX NSCLC, 21.3 µM. Further, the TGI with UACC-62 melanoma was 37.8 µM; with SW-620 colon it was above 44.5 µM; with RPMI-8226 leukemia, 12 µM; with MDA-MB-435, 32.8 µM.

As for `Clc1cc2c(nn1)Nc1ccccc1S2`, the GI50 with SK-MEL-28 melanoma was above 100 µM; in the test with OVCAR-3 ovarian it was above 100 µM; with BT-549 breast, above 100 µM; with DU-145 prostate, above 100 µM; in the test on HOP-62 NSCLC, above 100 µM; in the test with EKVX NSCLC, 35.6 µM. In addition, the GI50 in the test on UACC-62 melanoma, in the test with SW-620 colon, with RPMI-8226 leukemia and in the test on MDA-MB-435 was above 100 µM in each case. In addition, the TGI in the test on SK-MEL-28 melanoma, with OVCAR-3 ovarian, with BT-549 breast, in the test with DU-145 prostate, in the test with HOP-62 NSCLC and in the test with EKVX NSCLC was above 100 µM each time. For the same molecule, the TGI with UACC-62 melanoma, with SW-620 colon, in the test on RPMI-8226 leukemia and in the test with MDA-MB-435 was above 100 µM in each case.

Consider `CC(=O)c1ccc(Nc2nc(Nc3ccc(F)cc3)nc(Nc3ccc(F)cc3)n2)cc1`, for which the GI50 in the test with SK-MEL-28 melanoma was 11 µM; with OVCAR-3 ovarian it was 10.6 µM; in the test on BT-549 breast, 10.1 µM; in the test with DU-145 prostate, 14.8 µM; in the test with HOP-62 NSCLC, 13.7 µM; with EKVX NSCLC it was 12.3 µM. For the same molecule, the GI50 in the test on UACC-62 melanoma was 28.9 µM; with SW-620 colon it was 13.4 µM; with RPMI-8226 leukemia it was 94.9 µM; in the test on MDA-MB-435 it was 3.24 µM. The TGI stood at 45 µM in the test with SK-MEL-28 melanoma; 33 µM in the test on OVCAR-3 ovarian; 31.5 µM with BT-549 breast; 55.7 µM in the test with DU-145 prostate; 32.5 µM in the test with HOP-62 NSCLC; 57.8 µM with EKVX NSCLC. For the same molecule, the TGI is above 100 µM in the test on UACC-62 melanoma, 88 µM in the test with SW-620 colon, above 100 µM with RPMI-8226 leukemia and above 100 µM in the test with MDA-MB-435.

Take `NCCCn1c2c(c3ccc([N+](=O)[O-])cc3c1=O)C(=O)c1cc(-c3ccccc3)ccc1-2`: the GI50 is 1.51 µM with SK-MEL-28 melanoma; 1.65 µM in the test with OVCAR-3 ovarian; 2.09 µM with BT-549 breast; 0.491 µM in the test on DU-145 prostate; 0.406 µM with HOP-62 NSCLC; 1.61 µM with EKVX NSCLC. The GI50 is 1.55 µM with UACC-62 melanoma, 0.182 µM in the test on SW-620 colon, 0.348 µM in the test on RPMI-8226 leukemia and 1.65 µM in the test with MDA-MB-435. For the same molecule, the TGI in the test on SK-MEL-28 melanoma stood at 3.13 µM; in the test on OVCAR-3 ovarian it was 3.1 µM; in the test on BT-549 breast it was 3.77 µM; in the test with DU-145 prostate, 1.02 µM; with HOP-62 NSCLC, 1.46 µM; in the test on EKVX NSCLC, 3.45 µM. Moreover, the TGI in the test with UACC-62 melanoma turned out to be 3 µM; with SW-620 colon, 0.336 µM; in the test on RPMI-8226 leukemia it was 1.45 µM; in the test on MDA-MB-435, 3.11 µM.

`COc1cc2oc(-c3ccc(O)cc3O)c(CC=C(C)C)c(=O)c2c(O)c1/C=C/C(C)C`: the TGI turned out to be 13.9 µM in the test on SK-MEL-28 melanoma; 4.94 µM in the test with OVCAR-3 ovarian; 11.4 µM in the test with BT-549 breast; 11 µM in the test with DU-145 prostate; 5.93 µM in the test with HOP-62 NSCLC; 15.3 µM with EKVX NSCLC. The TGI in the test on UACC-62 melanoma stood at 10.4 µM; with SW-620 colon it was 6.03 µM; in the test with RPMI-8226 leukemia, 8.73 µM; in the test with MDA-MB-435, 4.49 µM.
